Drawing on patent US11046686B2, “Thiadiazole IRAK4 compounds” (Gilead Sciences, Inc., priority 2018, dated 2021), this text covers EC50 for 26 compounds.

pEC50: −log10 of the molar value.

What is called pEC50 is −log10 of the EC50, conventionally taken in molar units.

The test system of one assay is TNFα. Nature of the assay: IRAK4 Monocyte TNFα Cell Based Assay. Details: species or system human. The note with it: Homo sapiens, Monocyte, human monocytes; second part of Table 2, compounds 33-343; unit inferred; read-out: EC50 MONO TNF HTRF. The method, boiled down:
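TNFα release quantified by HTRF (cryptate/XL665 antibody pair, overnight at RT) after 1 h compound pre-incubation (0.1% DMSO) and 4 h LPS challenge at 50 pg/ml, 37 °C, 5,000 monocytes per well. Signal ratio normalised between unstimulated (0%) and stimulated (100%) controls.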
Turning to `C[C@H](C#N)Nc1cc(-c2ccc3cc(C#N)cnn23)ncc1-c1nnc(N2C[C@H]3CC[C@@H](C2)[C@@H]3NC(=O)C2CC2)s1` [Example 148, N-((1R,5S,8S)-3-(5-(4-(((R)-1-cyanoethyl)amino)-6-(3-cyanopyrrolo[1,2-b]pyridazin-7-yl)pyridin-3-yl)-1,3,4-thiadiazol-2-yl)-3-azabicyclo[3.2.1]octan-8-yl)cyclopropanecarboxamide], the negative logarithm of the EC50 (pEC50) was 8.85.

The same assay, now with this note: human monocytes; second part of Table 2, compounds 33-343; unit inferred; read-out: EC50 MONO TNF HTRF.
In the case of `CC1(Nc2cc(-c3ccc4cc(C#N)cnn34)ncc2-c2nnc(N3C[C@H]4CC[C@@H](C3)[C@H]4O)s2)COC1` [Example 149, 7-(5-(5-((1R,5S,8r)-8-hydroxy-3-azabicyclo[3.2.1]octan-3-yl)-1,3,4-thiadiazol-2-yl)-4-((3-methyloxetan-3-yl)amino)pyridin-2-yl)pyrrolo[1,2-b]pyridazine-3-carbonitrile], the pEC50 is 8.31.

For the compound `CC(C)Nc1cc(-c2ccc3cc(C#N)cnn23)ncc1-c1nnc(N2C[C@H]3CC[C@@H](C2)[C@@H]3NC(=O)C2CC2)s1` [Example 150, N-((1R,5S,8s)-3-(5-(6-(3-cyanopyrrolo[1,2-b]pyridazin-7-yl)-4-(isopropylamino)pyridin-3-yl)-1,3,4-thiadiazol-2-yl)-3-azabicyclo[3.2.1]octan-8-yl)cyclopropanecarboxamide], the pEC50 is 8.28.

On to `CC(C)Nc1cc(-c2ccc3cc(C#N)cnn23)ncc1-c1nnc(N2C[C@H]3CC[C@@H](C2)[C@@]3(C)O)s1` [Example 153, 7-(5-(5-((1R,55,8r)-8-hydroxy-8-methyl-3-azabicyclo[3.2.1]octan-3-yl)-1,3,4-thiadiazol-2-yl)-4-(isopropylamino)pyridin-2-yl)pyrrolo[1,2-b]pyridazine-3-carbonitrile], for which the pEC50 was 8.14.

As for `CC(C)Nc1cc(-c2ccc3cc(C#N)cnn23)ncc1-c1nnc(N2C[C@H]3CC[C@@H](C2)[C@@H]3O)s1` [Example 154, 7-(5-(5-((1R,5S,8s)-8-hydroxy-3-azabicyclo[3.2.1]octan-3-yl)-1,3,4-thiadiazol-2-yl)-4-(isopropylamino)pyridin-2-yl)pyrrolo[1,2-b]pyridazine-3-carbonitrile], the negative-log EC50 (pEC50) is 7.88.

With `CC(=O)N[C@]1(C)[C@@H]2CC[C@H]1CN(c1nnc(-c3cnc(-c4ccc5cc(C#N)cnn45)cc3NC(C)C)s1)C2` [Example 155], the pEC50 was 8.13.

Take `N#Cc1cnn2c(-c3cc(NC4CCOCC4)c(-c4nnc([C@H]5CC[C@H](NC(=O)C6CC6)CC5)s4)cn3)ccc2c1` [Example 156, N-((1r,4r)-4-(5-(6-(3-cyanopyrrolo[1,2-b]pyridazin-7-yl)-4-((tetrahydro-2H-pyran-4-yl)amino)pyridin-3-yl)-1,3,4-thiadiazol-2-yl)cyclohexyl)cyclopropanecarboxamide]: the pEC50 is 7.96.

As for `CC(=O)N[C@]1(C)[C@@H]2CC[C@H]1CN(c1nnc(-c3cnc(-c4ccc5cc(C#N)cnn45)cc3N[C@H](C)C#N)s1)C2` [Example 157, N-((1R,5S,8S)-3-(5-(4-((R)-1-cyanoethypamino)-6-(3-cyanopyrrolo[1,2-b]pyridazin-7-yl)pyridin-3-yl)-1,3,4-thiadiazol-2-yl)-8-methyl-3-azabicyclo[3.2.1]octan-8-yl)acetamide], the pEC50 was 8.74.

On to `CC1(Nc2cc(-c3ccc4cc(C#N)cnn34)ncc2-c2nnc([C@H]3CC[C@H](NC(=O)C4CC4)CC3)s2)COC1` [Example 158, N-((1r,4r)-4-(5-(6-(3-cyanopyrrolo[1,2-b]pyridazin-7-yl)-4-((3-methyloxetan-3-yl)amino)pyridin-3-yl)-1,3,4-thiadiazol-2-yl)cyclohexyl)cyclopropanecarboxamide], for which the pEC50 is 7.70.

As for `CC(C)Nc1cc(-c2ccc3cc(C#N)cnn23)ncc1-c1nnc(N2CC3CCC(C2)C3(O)C(F)(F)F)s1` (centres unmarked) [Example 159, 7-(5-(5-(8-hydroxy-8-(trifluoromethyl)-3-azabicyclo[3.2.1]octan-3-yl)-1,3,4-thiadiazol-2-yl)-4-(isopropylamino)pyridin-2-yl)pylrolo[1,2-b]pyridazine-3-carbonitrile], the negative logarithm of the EC50 (pEC50) was 7.59.

Turning to `C[C@H](C#N)Nc1cc(-c2ccc3cc(C#N)cnn23)ncc1-c1nnc([C@H]2CC[C@H](NC(=O)C3CC3)CC2)s1` [Example 160, N-((1R,4r)-4-(5-(4-(((R)-1-cyanoethyl)amino)-6-(3-cyanopyrrolo[1,2-b]pyridazin-7-yl)pyridin-3-yl)-1,3,4-thiadiazol-2-yl)cyclohexyl)cyclopropanecarboxamide], the pEC50 is 8.55.

Turning to `CC(C)Nc1cc(-c2ccc3cc(C#N)cnn23)ncc1-c1nnc(N2CC3(CCNC3=O)C2)s1` [Example 164], the negative logarithm of the EC50 (pEC50) was 7.76.

Consider `CC(=O)N[C@H]1[C@@H]2CCC[C@H]1CN(c1nnc(-c3cnc(-c4ccc5cc(C#N)cnn45)cc3NC(C)C)s1)C2` [Example 165, N-((1R,5S,9r)-3-(5-(6-(3-cyanopyrrolo[1,2-b]pyridazin-7-yl)-4-(isopropylamino)pyridin-3-yl)-1,3,4-thiadiazol-2-yl)-3-azabicyclo[3.3.1]nonan-9-yl)acetamide], for which the pEC50 is 7.41.

In the case of `CC(=O)N[C@@H]1[C@@H]2CCC[C@H]1CN(c1nnc(-c3cnc(-c4ccc5cc(C#N)cnn45)cc3NC(C)C)s1)C2` [Example 166, N-((1R,5S,9s)-3-(5-(6-(3-cyanopyrrolo[1,2-b]pyridazin-7-yl)-4-(isopropylamino)pyridin-3-yl)-1,3,4-thiadiazol-2-yl)-3-azabicyclo[3.3.1]nonan-9-yl)acetamide], the pEC50 is 8.64.

Regarding `CC(=O)N[C@@H]1[C@@H]2CC[C@H]1CN(c1nnc(-c3cnc(-c4ccc5cc(C#N)cnn45)cc3NC3CCOCC3)s1)C2` [Example 171, N-((1R,5S,8s)-3-(5-(6-(3-cyanopyrrolo[1,2-b]pyridazin-7-yl)-4-((tetrahydro-2H-pyran-4-yl)amino)pyridin-3-yl)-1,3,4-thiadiazol-2-yl)-3-azabicyclo[3.2.1]octan-8-yl)acetamide], the pEC50 is 8.68.

Regarding `CC(C)Nc1cc(-c2ccc3cc(C#N)cnn23)ncc1-c1nnc(N2CCC(O)(C(F)(F)F)CC2)s1` [Example 172, 7-(5-(5-(4-hydroxy-4-(trifluoromethyl)piperidin-l-yl)-1,3,4-thiadiazol-2-yl)-4-(isopropylamino)pyridin-2-yl)pyrrolo[1,2-b]pyridazine-3-carbonitrile], the negative logarithm of the EC50 (pEC50) was 7.46.

For `CC(=O)N[C@@H]1[C@@H]2C[C@H]1CN(c1nnc(-c3cnc(-c4ccc5cc(C#N)cnn45)cc3NC(C)C)s1)C2` [Example 173, N-((1R,5S,6s)-3-(5-(6-(3-cyanopyrrolo[1,2-b]pyridazin-7-yl)-4-(isopropylamino)pyridin-3-yl)-1,3,4-thiadiazol-2-yl)-3-azabicyclo[3.1.1]heptan-6-yl)acetamide], the negative logarithm of the EC50 (pEC50) was 7.94.

On to `CC(=O)N[C@@H]1[C@@H]2C[C@H]1CN(c1nnc(-c3cnc(-c4ccc5cc(C#N)cnn45)cc3N[C@H](C)C#N)s1)C2` [Example 174, N-((1R,5S,6S)-3-(5-(4-(((R)-1-cyanoethyl)amino)-6-(3-cyanopyrrolo[1,2-b]pyridazin-7-yl)pyridin-3-yl)-1,3,4-thiadiazol-2-yl)-3-azabicyclo[3.1.1]heptan-6-yl)acetamide], for which the negative logarithm of the EC50 (pEC50) was 8.46.

Turning to `CC(=O)N[C@@H]1[C@@H]2C[C@H]1CN(c1nnc(-c3cnc(-c4ccc5cc(C#N)cnn45)cc3NC3(C)COC3)s1)C2` [Example 175, N-((1R,5S,6s)-3-(5-(6-(3-cyanopyrrolo[1,2-b]pyridazin-7-yl)-4-((3-methyloxetan-3-yl)amino)pyridin-3-yl)-1,3,4-thiadiazol-2-yl)-3-azabicyclo[3.1.1]heptan-6-yl)acetamide], the pEC50 was 8.05.

For the compound `CNc1cc(-c2ccc3cc(C#N)cnn23)ncc1-c1nnc(N2C[C@H]3C[C@@H](C2)[C@@H]3NC(C)=O)s1` [Example 176, N-((1R,5S,6s)-3-(5-(6-(3-cyanopyrrolo[1,2-b]pyridazin-7-yl)-4-(methylamino)pyridin-3-yl)-1,3,4-thiadiazol-2-yl)-3-azabicyclo[3.1.1]heptan-6-yl)acetamide], the pEC50 is 7.63.

In the case of `CC(=O)N[C@@H]1[C@@H]2C[C@H]1CN(c1nnc(-c3cnc(-c4ccc5cc(C#N)cnn45)cc3NC3COC3)s1)C2` [Example 179, N-((1R,5S,6s)-3-(5-(6-(3-cyanopyrrolo[1,2-b]pyridazin-7-yl)-4-(oxetan-3-ylamino)pyridin-3-yl)-1,3,4-thiadiazol-2-yl)-3-azabicyclo[3.1.1]heptan-6-yl)acetamide], the pEC50 was 8.19.

For the compound `C[C@H](C#N)Nc1cc(-c2ccc3cc(C#N)cnn23)ncc1-c1nnc(N2CCC(C)(O)CC2)s1` [Example 180], the pEC50 is 8.17.

On to `CC1(O)CCN(c2nnc(-c3cnc(-c4ccc5cc(C#N)cnn45)cc3NC3(C)COC3)s2)CC1` [Example 181, 7-(5-(5-(4-hydroxy-4-methylpiperidin-l-yl)-1,3,4-thiadiazol-2-yl)-4-((3-methyloxetan-3-yl)amino)pyridin-2-yl)pyrrolo[1,2-b]pyridazine-3-carbonitrile], for which the pEC50 is 7.74.

Take `CC(=O)N[C@H]1[C@@H]2COC[C@H]1CN(c1nnc(-c3cnc(-c4ccc5cc(C#N)cnn45)cc3NC(C)C)s1)C2` [Example 182, N-((1R,5S,9r)-7-(5-(6-(3-cyanopyrrolo[1,2-b]pyridazin-7-yl)-4-(isopropylamino)pyridin-3-yl)-1,3,4-thiadiazol-2-yl)-3-oxa-7-azabicyclo[3.3.1]nonan-9-yl)acetamide]: the pEC50 was 7.42.

Take `CC(=O)N[C@@H]1[C@@H]2CC[C@H]1CN(c1nnc(-c3cnc(-c4ccc5cc(C#N)cnn45)cc3NC3COC3)s1)C2` [Example 184]: the pEC50 was 8.62.

On to `CC(C)Nc1cc(-c2ccc3cc(C#N)cnn23)ncc1-c1nnc(N2CC[C@@](C)(O)[C@@H](F)C2)s1` [Example 186, 7-(5-(5-((3S,4R)-3-fluoro-4-hydroxy-4-methylpiperidin-l-yl)-1,3,4-thiadiazol-2-yl)-4-(isopropylamino)pyridin-2-yl)pyrrolo[1,2-b]pyridazine-3-carbonitrile], for which the pEC50 was 8.08.
